Where a name gives a salt, the structure may show the parent alone.

As usually defined, the melting point is the temperature, or range, at which the solid turns liquid. A word on the Ki: it is the dissociation constant of the complex between target and ligand, obtained from inhibition or displacement.

Data set [1] addresses T1, recombinant human 5-HT6 receptor (Homo sapiens, UniProt P50406).
T1 construct: expressed in transfected cells; cell membranes used
The data set can be described thus: Radioligand binding: competition for [3H]LSD binding in membranes of HEK293 cells expressing the receptor. The settings on record: [3H]LSD (5 nM), HEK293 cell membranes, 60 min at 37° C., pH 7.4, duplicate determinations. Here is the method: The binding activity of compounds of this invention in vitro was determined as follows. Duplicate determinations of ligand affinity are made by competing for binding of [^3H]LSD in cell membranes derived from HEK293 cells stably expressing recombinant human 5-HT6 receptor.
All determinations were made in assay buffer containing 50 mM Tris-HCl, 10 mM MgSO4, 0.5 mM EDTA, 1 mM ascorbic acid, pH 7.4 at 37° C., in a 250 microliter reaction volume. Assay tubes containing [^3H] LSD (5 nM), competing ligand, and membrane were incubated in a shaking water bath for 60 min. at 37° C., filtered onto Packard GF-B plates (presoaked with 0.3% PEI) using a Packard 96 well cell harvester and washed 3 times in ice cold 50 mM Tris-HCl. Bound [^3H] LSD was determined as radioactive counts per minute using Packard TopCount.
Displacement of [3H]LSD from the binding sites was quantified by fitting concentration-binding data to a 4-parameter logistic equation:
[formula] where Hill is the Hill slope, [ligand] is the concentration of competing radioligand and IC50 is the concentration of radioligand producing half-maximal specific binding of radioligand. The specific binding window is the difference between the Bmax and the basal parameters.

T1 sequence (P50406 whole entry): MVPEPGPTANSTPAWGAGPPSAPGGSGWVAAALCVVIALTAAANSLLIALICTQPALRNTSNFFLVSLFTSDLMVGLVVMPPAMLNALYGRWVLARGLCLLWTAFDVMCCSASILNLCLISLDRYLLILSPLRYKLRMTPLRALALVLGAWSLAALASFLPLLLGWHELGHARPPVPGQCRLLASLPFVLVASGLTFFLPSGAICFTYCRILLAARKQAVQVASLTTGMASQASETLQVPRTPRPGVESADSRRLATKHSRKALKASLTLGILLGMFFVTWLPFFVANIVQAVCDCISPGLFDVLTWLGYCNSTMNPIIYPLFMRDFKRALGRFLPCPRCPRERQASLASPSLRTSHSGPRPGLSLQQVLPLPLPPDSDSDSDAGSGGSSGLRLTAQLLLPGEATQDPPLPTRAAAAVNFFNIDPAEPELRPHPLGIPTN

`COc1cc(N2CCNCC2)c2c(c1)N(Cc1cccc(Cl)c1)C(=O)CO2` (as salt: hydrochloride): the melting point was in the range of 55.2 to 58.8 °C.
On the same count and under the same terms, the same measure for `O=C1COc2c(N3CCNCC3)cccc2N1Cc1ccccc1` (as salt: hydrochloride): 250.9 to 253.8 °C.
Consider `O=C1COc2c(N3CCNCC3)cc(F)cc2N1Cc1ccccc1F` [4-(2-fluoro-benzyl)-6-fluoro-8-piperazin-1-yl-4H-benzo[1,4]oxazin-3-one], for which, in data set [1], the Ki was 0.676 nM.
The same measure, in the same setting: the same measure for `O=C1COc2c(N3CCNCC3)cccc2N1Cc1ccccc1F` [4-(2-fluoro-benzyl)-8-piperazin-1-yl-4H-benzo[1,4]oxazin-3-one]: 0.912 nM.
On to `CC1(C)Oc2c(N3CCNCC3)cccc2N(Cc2cccc(Cl)c2)C1=O` [4-(3-Chloro-benzyl)-2,2-dimethyl-8-piperazin-1-yl-4H-benzo[1,4]oxazin-3-one], for which, in data set [1], the Ki is 0.759 nM.
Regarding `CC1(C)Oc2c(N3CCNCC3)cccc2N(Cc2ccccc2)C1=O` [4-Benzyl-2,2-dimethyl-8-piperazin-1-yl-4H-benzo[1,4]oxazin-3-one], the Ki in data set [1] is 0.741 nM.
Same read-out and setting: for `C[C@@H]1Oc2c(N3CCNCC3)cccc2N(Cc2ccccc2)C1=O` [(S)-4-Benzyl-2-methyl-8-piperazin-1-yl-4H-benzo[1,4]oxazin-3-one] the value was 0.759 nM.

Source of the values: patent US7141562B2, “Substituted benzoxazinones and uses thereof” (Roche Palo Alto LLC, priority 2002, dated 2006).
